The supplement of paper PMC10307832

Tests used:
Experiment in all cases: relative viability (nuclei count vs DMSO), 5 days (fraction); higher = more cells survive
[1] = compound: CCOC1=CC=CC=C1N=NC2=C(NN(C2=O)C3=NC(=CS3)C4=CC=CC=C4)C [BAM7] + CS(=O)(=O)CCNCc1ccc(-c2ccc3ncnc(Nc4ccc(OCc5cccc(F)c5)c(Cl)c4)c3c2)o1 [Lapatinib] (partner 2 µM)
Method in brief: (§1)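 Five library-drug doses in √10 steps were combined with a fixed anchor-drug dose, or a single drug was given alone, by pin tool to lung cancer cell lines in 1536-well plates the day after seeding. Nuclei were stained and counted after 5 days. Relative viability is the nuclei count in treated wells over that in vehicle wells, taken as the median of duplicate plates.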

[2] = compound: CCn1c(-c2nonc2N)nc2c(C#CC(C)(C)O)ncc(OC[C@H]3CCCNC3)c21 + COc1cccc2cc(-c3nc([C@H]4CC[C@H](C(=O)O)CC4)n4ncnc(N)c34)[nH]c12 [OSI-027] (partner 0.5 µM)
Method in brief: as §1

[3] = compound: CCn1c(-c2nonc2N)nc2c(C#CC(C)(C)O)ncc(OC[C@H]3CCCNC3)c21 + O=C(c1cc(Cc2n[nH]c(=O)c3ccccc23)ccc1F)N1CCN(C(=O)C2CC2)CC1 [Olaparib] (partner 8 µM)
Method in brief: as §1

[4] = compound: CCOC1=CC=CC=C1N=NC2=C(NN(C2=O)C3=NC(=CS3)C4=CC=CC=C4)C [BAM7] + COc1cc2c(Oc3ccc(NC(=O)C4(C(=O)Nc5ccc(F)cc5)CC4)cc3F)ccnc2cc1OCCCN1CCOCC1 [Foretinib] (partner 0.25 µM)
Method in brief: as §1

Row | Cell Line | relative viability ([1]; first compound 0.5 µM) | relative viability ([1]; first compound 5 µM) | relative viability ([1]; first compound 15.81 µM) | relative viability ([1]; first compound 50 µM) | relative viability ([2]; first compound 0.01 µM) | relative viability ([2]; first compound 0.03162 µM) | relative viability ([2]; first compound 0.1 µM) | relative viability ([2]; first compound 0.3162 µM) | relative viability ([2]; first compound 1 µM) | relative viability ([3]; first compound 0.01 µM) | relative viability ([3]; first compound 0.03162 µM) | relative viability ([3]; first compound 0.1 µM) | relative viability ([3]; first compound 0.3162 µM) | relative viability ([3]; first compound 1 µM) | relative viability ([4]; first compound 0.5 µM) | relative viability ([4]; first compound 5 µM) | relative viability ([4]; first compound 15.81 µM) | relative viability ([4]; first compound 50 µM)
1 | NCI-H23 | 1.48 | 1.1 | 0.997 | 1.26 | 0.679 | 0.612 | 0.606 | 0.638 | 0.597 | 0.294 | 0.275 | 0.269 | 0.309 | 0.313 | 1.05 | 1.03 | 0.928 | 1.1
2 | NCI-H322M | 0.659 | 0.593 | 0.577 | 0.572 | 0.479 | 0.496 | 0.45 | 0.42 | 0.483 | 0.779 | 0.71 | 0.693 | 0.749 | 0.831 | 0.939 | 0.95 | 0.862 | 0.932
3 | NCI-H358 | 0.46 | 0.522 | 0.479 | 0.568 | 0.723 | 0.822 | 0.692 | 0.445 | 0.373 | 0.556 | 0.601 | 0.569 | 0.525 | 0.518 | 0.834 | 0.84 | 0.642 | 0.634
4 | NCI-H460 | 0.904 | 1.13 | 0.953 | 1.03 | 0.579 | 0.784 | 0.588 | 0.535 | 0.548 | 0.363 | 0.411 | 0.474 | 0.403 | 0.495 | 0.926 | 0.982 | 0.878 | 0.969
5 | NCI-H520 | 0.804 | 0.904 | 0.93 | 1.03 | 0.221 | 0.266 | 0.208 | 0.183 | 0.173 | 0.337 | 0.341 | 0.236 | 0.194 | 0.169 | 0.736 | 0.825 | 0.767 | 0.804
6 | NCI-H596 | 0.984 | 1.14 | 1.01 | 1.12 | 0.618 | 0.789 | 0.663 | 0.668 | 0.645 | 0.682 |  | 0.72 | 0.697 | 0.871 | 0.874 | 0.883 | 0.762 | 0.951
7 | NCI-H647 | 1.06 | 0.926 | 1.01 | 1.06 | 0.579 | 0.652 | 0.615 | 0.419 | 0.687 | 0.467 | 0.775 | 0.486 | 0.561 | 0.517 | 1.4 | 1.2 | 1.16 | 1.21
8 | NCI-H650 | 0.787 | 0.92 | 0.842 | 1.13 | 0.412 | 0.39 | 0.495 | 0.463 | 0.441 | 0.387 | 0.43 | 0.435 | 0.371 | 0.392 | 0.988 | 1.14 | 1 | 0.992
9 | NCI-H661 | 0.704 | 0.494 | 0.41 | 0.54 | 0.659 | 0.781 | 0.644 | 0.553 | 0.501 | 0.713 | 0.755 | 0.836 | 0.771 | 0.758 | 1.02 | 1.08 | 0.964 | 1.11
10 | NCI-H727 | 0.923 | 1.1 | 0.788 | 0.834 | 0.617 | 0.58 | 0.535 | 0.551 | 0.528 | 0.801 | 0.668 | 0.751 | 0.805 | 0.869 | 0.851 | 1.19 | 0.864 | 0.801
11 | NCI-H838 | 1.03 | 1.04 | 0.908 | 1.14 | 0.354 | 0.406 | 0.367 | 0.401 | 0.428 | 0.74 | 0.838 | 0.804 | 0.726 | 0.76 | 1.08 | 1.22 | 0.985 | 0.989
12 | NCI-H1355 | 0.972 | 1.01 | 0.986 | 1.02 | 0.451 | 0.379 | 0.378 | 0.393 | 0.424 | 0.689 | 0.774 | 0.734 | 0.709 | 0.735 | 0.936 | 0.907 | 0.795 | 0.791
13 | NCI-H1395 | 0.826 | 1.03 | 1.17 | 1.33 | 0.496 | 0.597 | 0.552 | 0.556 | 0.555 | 0.464 | 0.412 | 0.472 | 0.433 | 0.372 | 1.01 | 1.09 | 1.01 | 1.05
14 | NCI-H1437 | 0.686 | 0.514 | 0.51 | 0.68 | 0.815 | 0.951 | 0.885 | 0.758 | 0.897 | 0.633 | 0.648 | 0.64 | 0.605 | 0.625 | 1.31 | 1.2 | 1.21 | 1.2
15 | NCI-H1650 | 0.758 | 0.726 | 0.806 | 0.855 | 0.641 | 0.625 | 0.508 | 0.421 | 0.359 | 0.782 | 0.837 | 0.893 | 0.761 | 0.738 | 1.34 | 1.2 | 1.01 | 1.04
16 | NCI-H1651 | 0.747 | 0.756 | 0.831 | 0.858 | 0.719 | 0.676 | 0.723 | 0.563 | 0.9 | 0.194 | 0.189 | 0.197 | 0.185 | 0.215 | 0.893 | 0.837 | 0.686 | 0.829
17 | NCI-H1666 | 0.47 | 0.7 | 0.564 | 0.754 | 0.776 | 0.777 | 0.835 | 0.693 | 0.722 | 0.793 | 0.722 | 0.752 | 0.769 | 0.778 | 0.945 | 1.1 | 0.996 | 1.06
